Experimental data taken from ChEMBL document CHEMBL6078668, “Synthesis and biological evaluation of lappaconitine analogues as potential anti-neuroinflammatory agents by side chain modification and scaffold hopping strategy” (Bioorg Med Chem, 2025).

Experiments:
[1] = Cytotoxicity against C57BL/6 mouse BV-2 cells assessed as survival rate at 30 uM incubated for 24 hrs by MTT assay relative to control; format: toxicity, cell-based; details: read-out: Survival
BV-2 = assay: Anti-neuroinflammatory activity against LPS-stimulated C57BL/6 mouse BV-2 cells assessed as inhibition of NO release at 30 uM preincubated with compound for 4 hrs followed by LPS addition and measured after 24 hrs by Griess reagent based assay relative to control; format: functional; details: C57BL/6, BV-2, time 28 hrs

| SMILES | viability at 24 h, 30 µM [1] | inhibition at 30 µM (BV-2) |
| --- | --- | --- |
| CCN1C[C@]2(OC(=O)c3ccccc3NC(=O)S(=O)(=O)c3ccc(C(C)=O)cc3)CC[C@H](OC)[C@]34C1[C@@H](C[C@H]23)[C@@]1(O)C[C@H](OC)[C@H]2C[C@@H]4[C@]1(O)[C@H]2OC | 92.6% | 18% |
| O=C(O)c1ccccc1NS(=O)(=O)c1ccc(Br)s1 | 96.5% | 18.4% |
| CCN1C[C@]2(OC(=O)c3ccccc3NC(=O)S(=O)(=O)c3ccccc3Cl)CC[C@H](OC)[C@]34C1[C@@H](C[C@H]23)[C@@]1(O)C[C@H](OC)[C@H]2C[C@@H]4[C@]1(O)[C@H]2OC | 100% | 7.8% |
| CCN1C[C@]2(OC(=O)c3ccccc3NC(=O)c3ccccc3I)CC[C@H](OC)[C@]34C1[C@@H](C[C@H]23)[C@@]1(O)C[C@H](OC)[C@H]2C[C@@H]4[C@]1(O)[C@H]2OC | 109% | 13.1% |
| CCN1C[C@]2(OC(=O)c3ccccc3NC(=O)S(=O)(=O)CCCCl)CC[C@H](OC)[C@]34C1[C@@H](C[C@H]23)[C@@]1(O)C[C@H](OC)[C@H]2C[C@@H]4[C@]1(O)[C@H]2OC | 104% | 23.5% |
| CCN1C[C@]2(OC(=O)c3ccccc3NC(=O)C3CC3)CC[C@H](OC)[C@]34C1[C@@H](C[C@H]23)[C@@]1(O)C[C@H](OC)[C@H]2C[C@@H]4[C@]1(O)[C@H]2OC | 104% | 27.7% |
| CCN1C[C@]2(OC(=O)c3ccccc3NC(=O)S(=O)(=O)CC)CC[C@H](OC)[C@]34C1[C@@H](C[C@H]23)[C@@]1(O)C[C@H](OC)[C@H]2C[C@@H]4[C@]1(O)[C@H]2OC | 106% | 12.5% |
| CCN1C[C@]2(OC(=O)c3ccccc3NC(=O)c3ccccc3N(C)C)CC[C@H](OC)[C@]34C1[C@@H](C[C@H]23)[C@@]1(O)C[C@H](OC)[C@H]2C[C@@H]4[C@]1(O)[C@H]2OC | 101% | 34.7% |
| CCN1C[C@]2(OC(=O)c3ccccc3NC(=O)S(=O)(=O)c3ccccc3Br)CC[C@H](OC)[C@]34C1[C@@H](C[C@H]23)[C@@]1(O)C[C@H](OC)[C@H]2C[C@@H]4[C@]1(O)[C@H]2OC | 92.6% | 7.3% |
| CCN1C[C@]2(OC(=O)c3ccccc3NC(=O)S(=O)(=O)c3ccc(Br)cc3)CC[C@H](OC)[C@]34C1[C@@H](C[C@H]23)[C@@]1(O)C[C@H](OC)[C@H]2C[C@@H]4[C@]1(O)[C@H]2OC | 109% | 40.8% |
| CCCCCCC(=O)Nc1ccccc1C(=O)O[C@@]12CC[C@H](OC)[C@]34C([C@@H](C[C@H]13)[C@@]1(O)C[C@H](OC)[C@H]3C[C@@H]4[C@]1(O)[C@H]3OC)N(CC)C2 | 100% | 30% |
| CCN1C[C@]2(OC(=O)c3ccccc3NC(=O)S(=O)(=O)c3ccccn3)CC[C@H](OC)[C@]34C1[C@@H](C[C@H]23)[C@@]1(O)C[C@H](OC)[C@H]2C[C@@H]4[C@]1(O)[C@H]2OC | 100% | 29.9% |
| CCN1C[C@]2(OC(=O)c3ccccc3NC(=O)S(=O)(=O)c3ccc(-c4ccccc4)cc3)CC[C@H](OC)[C@]34C1[C@@H](C[C@H]23)[C@@]1(O)C[C@H](OC)[C@H]2C[C@@H]4[C@]1(O)[C@H]2OC | 102% | 41.9% |
| CCCc1ccc(S(=O)(=O)C(=O)Nc2ccccc2C(=O)O[C@@]23CC[C@H](OC)[C@]45C([C@@H](C[C@H]24)[C@@]2(O)C[C@H](OC)[C@H]4C[C@@H]5[C@]2(O)[C@H]4OC)N(CC)C3)cc1 | 92.3% | 43.4% |
| CCc1ccc(C(=O)Nc2ccccc2C(=O)OC)cc1 | 103% | 37.1% |
| CCN1C[C@]2(OC(=O)c3ccccc3NC(=O)c3ccc(Br)cc3)CC[C@H](OC)[C@]34C1[C@@H](C[C@H]23)[C@@]1(O)C[C@H](OC)[C@H]2C[C@@H]4[C@]1(O)[C@H]2OC | 102% | 21.3% |
| CCN1C[C@]2(OC(=O)c3ccccc3NC(=O)S(=O)(=O)c3cc(Cl)ccc3OC)CC[C@H](OC)[C@]34C1[C@@H](C[C@H]23)[C@@]1(O)C[C@H](OC)[C@H]2C[C@@H]4[C@]1(O)[C@H]2OC | 94.9% | 6% |
| CCN1C[C@]2(COC)CC[C@H](OC)[C@]34C1[C@@H](C[C@H]23)[C@@]1(O)C[C@H](OC)[C@H]2C[C@@H]4[C@]1(O)[C@H]2OC(=O)c1ccccc1N | 101% | 19.4% |

| SMILES | viability at 24 h, 30 µM [1] | inhibition at 30 µM (BV-2) |
| --- | --- | --- |
| CCN1C[C@]2(OC(=O)c3ccccc3NC(=O)S(=O)(=O)c3ccc4ccccc4c3)CC[C@H](OC)[C@]34C1[C@@H](C[C@H]23)[C@@]1(O)C[C@H](OC)[C@H]2C[C@@H]4[C@]1(O)[C@H]2OC | 100% | 53.1% |
| CCN1C[C@]2(OC(=O)c3ccccc3NC(=O)S(=O)(=O)c3ccc(C#N)cc3)CC[C@H](OC)[C@]34C1[C@@H](C[C@H]23)[C@@]1(O)C[C@H](OC)[C@H]2C[C@@H]4[C@]1(O)[C@H]2OC | 103% | 38.8% |
| CCO/C=C/C(=O)Nc1ccccc1C(=O)O[C@@]12CC[C@H](OC)[C@]34C([C@@H](C[C@H]13)[C@@]1(O)C[C@H](OC)[C@H]3C[C@@H]4[C@]1(O)[C@H]3OC)N(CC)C2 | 110% | 28.7% |
| CCN1C[C@]2(OC(=O)c3ccccc3NC(=O)S(=O)(=O)c3ccc(C)cc3)CC[C@H](OC)[C@]34C1[C@@H](C[C@H]23)[C@@]1(O)C[C@H](OC)[C@H]2C[C@@H]4[C@]1(O)[C@H]2OC | 102% | 31.7% |
| CCN1C[C@]2(OC(=O)c3ccccc3NC(=O)c3cccc(C#N)c3)CC[C@H](OC)[C@]34C1[C@@H](C[C@H]23)[C@@]1(O)C[C@H](OC)[C@H]2C[C@@H]4[C@]1(O)[C@H]2OC | 101% | 12.8% |
| CCN1C[C@]2(OC(=O)c3ccccc3NC(=O)c3ccccc3OC)CC[C@H](OC)[C@]34C1[C@@H](C[C@H]23)[C@@]1(O)C[C@H](OC)[C@H]2C[C@@H]4[C@]1(O)[C@H]2OC | 97% | 34.2% |
| CCN1C[C@]2(OC(=O)c3ccccc3NC(=O)S(=O)(=O)c3cccs3)CC[C@H](OC)[C@]34C1[C@@H](C[C@H]23)[C@@]1(O)C[C@H](OC)[C@H]2C[C@@H]4[C@]1(O)[C@H]2OC | 105% | 55.9% |
| CCN1C[C@]2(OC(=O)c3ccccc3NC(=O)S(=O)(=O)c3ccc(F)cc3C)CC[C@H](OC)[C@]34C1[C@@H](C[C@H]23)[C@@]1(O)C[C@H](OC)[C@H]2C[C@@H]4[C@]1(O)[C@H]2OC | 92.7% | 32.2% |
| CCN1C[C@]2(OC(=O)c3ccccc3NC(=O)S(=O)(=O)c3ccc4c(c3)CCC4)CC[C@H](OC)[C@]34C1[C@@H](C[C@H]23)[C@@]1(O)C[C@H](OC)[C@H]2C[C@@H]4[C@]1(O)[C@H]2OC | 94.4% | 18.1% |
| CCN1C[C@]2(OC(=O)c3ccccc3NC(=O)C3CCOCC3)CC[C@H](OC)[C@]34C1[C@@H](C[C@H]23)[C@@]1(O)C[C@H](OC)[C@H]2C[C@@H]4[C@]1(O)[C@H]2OC | 103% | 36.3% |
| CCN1C[C@]2(OC(=O)c3ccccc3NC(=O)S(=O)(=O)c3cccc(Cl)c3)CC[C@H](OC)[C@]34C1[C@@H](C[C@H]23)[C@@]1(O)C[C@H](OC)[C@H]2C[C@@H]4[C@]1(O)[C@H]2OC | 95.4% | 13.9% |
| CCC(=O)Nc1ccccc1C(=O)O[C@@]12CC[C@H](OC)[C@]34C([C@@H](C[C@H]13)[C@@]1(O)C[C@H](OC)[C@H]3C[C@@H]4[C@]1(O)[C@H]3OC)N(CC)C2 | 96.1% | 19.1% |
| CCN1C[C@]2(OC(=O)c3ccccc3NC(=O)S(=O)(=O)c3ccccc3[N+](=O)[O-])CC[C@H](OC)[C@]34C1[C@@H](C[C@H]23)[C@@]1(O)C[C@H](OC)[C@H]2C[C@@H]4[C@]1(O)[C@H]2OC | 104% | 20.5% |
| CCN1C[C@]2(OC(=O)c3ccccc3NC(=O)S(=O)(=O)c3ccc(Cl)cc3)CC[C@H](OC)[C@]34C1[C@@H](C[C@H]23)[C@@]1(O)C[C@H](OC)[C@H]2C[C@@H]4[C@]1(O)[C@H]2OC | 100% | 39.2% |
| CCN1C[C@]2(OC(=O)c3ccccc3NC(=O)S(=O)(=O)c3ccccc3C(F)(F)F)CC[C@H](OC)[C@]34C1[C@@H](C[C@H]23)[C@@]1(O)C[C@H](OC)[C@H]2C[C@@H]4[C@]1(O)[C@H]2OC | 107% | 13.7% |
| CCN1C[C@]2(OC(=O)c3ccccc3NC(=O)S(=O)(=O)c3ccc(F)c(Cl)c3)CC[C@H](OC)[C@]34C1[C@@H](C[C@H]23)[C@@]1(O)C[C@H](OC)[C@H]2C[C@@H]4[C@]1(O)[C@H]2OC | 93.6% | 26.2% |
| CCN1C[C@]2(OC(=O)c3ccccc3NC(=O)S(=O)(=O)c3cccc(C#N)c3)CC[C@H](OC)[C@]34C1[C@@H](C[C@H]23)[C@@]1(O)C[C@H](OC)[C@H]2C[C@@H]4[C@]1(O)[C@H]2OC | 108% | 7.4% |
| CCN1C[C@]2(OC(=O)c3ccccc3NC(=O)S(=O)(=O)c3ccc(OC)cc3)CC[C@H](OC)[C@]34C1[C@@H](C[C@H]23)[C@@]1(O)C[C@H](OC)[C@H]2C[C@@H]4[C@]1(O)[C@H]2OC | 92.4% | 10.8% |
